# According to patent US20260007758A1, “SO[…]-2 RECEPTOR (SST2R) NON-PEPTIDE DRUG CONJUGATES AND USES THEREOF” (Crinetics Pharmaceuticals, Inc., priority 2024, published 2026):
# Columns and labels:
# Format in all cases: cell-based
# [1] = biological target: T1, human somatostatin receptor subtype 2 (Homo sapiens, UniProt P30874); experiment: Functional assay for SSTR2 agonists (HTRF cAMP); details: CHO-K1 cells stably expressing human SST2; NKH477-stimulated cAMP; 20 min at 37 C; read-out: hSST2 cAMP Avg EC50
# T1 construct: expressed in transfected cells
# How it was run: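 Agonist activity read as fall in intracellular cAMP: HTRF 665/620 nm ratio regressed to a cAMP standard curve, EC50 fitted. Stable human SSTR2 CHO-K1 cells exposed 20 min at 37 °C to compound, final concentrations typically 0-10,000 nM.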
# SST2 = biological target: T2, SST2 (Homo sapiens, UniProt P30874); experiment: PathHunter CHO-K1 SST2 Internalization Assay; details: PathHunter CHO-K1 SST2 cells; 90 min at 37 C; luminescence; read-out: Internalization EC50
# T2 construct: host or cells: PathHunter CHO-K1 SST2 cells
# How it was run: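 Four-parameter nonlinear fits of background-corrected luminescence (duplicate means) gave IC50s. NDCs were serially diluted 1:3 over 11 points from a 10 uM final top concentration and incubated 90 min at 37 C with human SST2 CHO-K1 cells plated 48 h earlier at 2500/well. Beta-Glo read-out developed 60 min at RT.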
# [2] = system: NCI-H524 human small cell lung cancer cells; experiment: H524 assay: inhibition of cell proliferation (CellTiter Glo); details: 2 h treatment, washout, additional 70 h incubation
# How it was run: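 Proliferation was measured by CellTiter Glo 70 h after a washout that followed a 2 h pulse of NDC. Doses were an 11-point, two-fold dilution series from 1 uM. IC50 was fitted with a four-parameter model to luminescence-based % inhibition relative to control cells.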
# T1 sequence (P30874 whole entry): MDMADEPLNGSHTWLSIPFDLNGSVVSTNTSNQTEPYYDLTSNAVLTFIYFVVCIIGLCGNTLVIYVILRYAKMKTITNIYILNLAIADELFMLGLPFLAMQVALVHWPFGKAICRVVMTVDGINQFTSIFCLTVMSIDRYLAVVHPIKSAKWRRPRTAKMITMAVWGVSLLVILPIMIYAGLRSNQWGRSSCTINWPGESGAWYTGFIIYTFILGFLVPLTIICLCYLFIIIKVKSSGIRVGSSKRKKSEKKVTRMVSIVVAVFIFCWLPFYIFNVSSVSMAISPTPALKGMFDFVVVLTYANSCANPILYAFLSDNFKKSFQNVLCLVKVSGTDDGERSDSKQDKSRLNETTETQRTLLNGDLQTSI
# T2 sequence (P30874 whole entry): as above
Compound,EC50 [1] [nM],EC50 (SST2) [nM],EC50 [2] [nM]
CC[C@H](C)[C@@H]([C@@H](CC(=O)N1CCC[C@H]1[C@H](OC)[C@@H](C)C(=O)N[C@H](C)[C@@H](O)c1ccccc1)OC)N(C)C(=O)[C@@H](NC(=O)[C@H](C(C)C)N(C)C(=O)OCc1ccc(NC(=O)[C@H](CCCNC(N)=O)NC(=O)[C@@H](NC(=O)CCCC(=O)N(C)CC(=O)NCCNc2ncc(-c3cc(C)cc(F)c3)c(N3CCC(N)CC3)c2-c2nc3ccc(Cl)cc3[nH]2)C(C)C)c(O[C@@H]2O[C@H](C(=O)O)[C@@H](O)[C@H](O)[C@H]2O)c1)C(C)C [Compound 56],0.81,68,26
CC[C@H](C)[C@@H]([C@@H](CC(=O)N1CCC[C@H]1[C@H](OC)[C@@H](C)C(=O)N[C@H](C)[C@@H](O)c1ccccc1)OC)N(C)C(=O)[C@@H](NC(=O)[C@H](C(C)C)N(C)C(=O)OCc1ccc(NC(=O)[C@H](CCCNC(N)=O)NC(=O)[C@@H](NC(=O)[C@H](CCC(=O)O)NC(=O)CCOCCC(=O)NCCNc2ncc(-c3cc(C)cc(F)c3)c(N3CCC(N)CC3)c2-c2nc3ccc(Cl)cc3[nH]2)C(C)C)cc1C(=O)NCCNC)C(C)C [Compound 57],0.31,6.6,1000
CC[C@H](C)[C@@H]([C@@H](CC(=O)N1CCC[C@H]1[C@H](OC)[C@@H](C)C(=O)N[C@H](C)[C@@H](O)c1ccccc1)OC)N(C)C(=O)[C@@H](NC(=O)[C@H](C(C)C)N(C)C(=O)OCc1ccc(NC(=O)[C@H](CCCNC(N)=O)NC(=O)[C@@H](NC(=O)c2cc(NCCOCCC(=O)NCCNc3ncc(-c4cc(C)cc(F)c4)c(N4CCC(N)CC4)c3-c3nc4ccc(Cl)cc4[nH]3)cc(C(=O)NCCN(CC(=O)O)CC(=O)O)c2)C(C)C)cc1C(=O)NCCN)C(C)C [Compound 58],0.26,14,910
CC[C@H](C)[C@@H]([C@@H](CC(=O)N1CCC[C@H]1[C@H](OC)[C@@H](C)C(=O)N[C@H](C)[C@@H](O)c1ccccc1)OC)N(C)C(=O)[C@@H](NC(=O)[C@H](C(C)C)N(C)C(=O)OCc1ccc(NC(=O)[C@H](CCCNC(N)=O)NC(=O)[C@@H](NC(=O)CCOCCOCCOCCOCCC(=O)NCCNc2ncc(-c3cc(C)cc(F)c3)c(N3CCC(N)CC3)c2-c2nc3ccc(Cl)cc3[nH]2)C(C)C)cc1C(=O)N1CC(N)C1)C(C)C [Compound 59],0.25,2,260
CC[C@H](C)[C@@H]([C@@H](CC(=O)N1CCC[C@H]1[C@H](OC)[C@@H](C)C(=O)N[C@H](C)[C@@H](O)c1ccccc1)OC)N(C)C(=O)[C@@H](NC(=O)[C@H](C(C)C)N(C)C(=O)OCc1ccc(NC(=O)[C@H](CCCNC(N)=O)NC(=O)[C@@H](NC(=O)[C@H](CCC(=O)O)NC(=O)CCOCCC(=O)NCCNc2ncc(-c3cc(C)cc(F)c3)c(N3CCC(N)CC3)c2-c2nc3ccc(Cl)cc3[nH]2)C(C)C)cc1C(=O)NCCN(C)C)C(C)C [Compound 64],0.12,2.9,11
CC[C@H](C)[C@@H]([C@@H](CC(=O)N1CCC[C@H]1[C@H](OC)[C@@H](C)C(=O)N[C@H](C)[C@@H](O)c1ccccc1)OC)N(C)C(=O)[C@@H](NC(=O)[C@H](C(C)C)N(C)C(=O)OCc1ccc(NC(=O)[C@H](CCCNC(N)=O)NC(=O)[C@@H](NC(=O)[C@H](CCC(=O)O)NC(=O)CCOCCOCCOCCOCCC(=O)NCCNc2ncc(-c3cc(C)cc(F)c3)c(N3CCC(N)CC3)c2-c2nc3ccc(Cl)cc3[nH]2)C(C)C)cc1C(=O)N1CC(N)C1)C(C)C [Compound 65],0.074,3.4,17
CC[C@H](C)[C@@H]([C@@H](CC(=O)N1CCC[C@H]1[C@H](OC)[C@@H](C)C(=O)N[C@H](C)[C@@H](O)c1ccccc1)OC)N(C)C(=O)[C@@H](NC(=O)[C@H](C(C)C)N(C)C(=O)OCc1ccc(NC(=O)[C@H](C)NC(=O)[C@@H](NC(=O)[C@H](CCc2nnn[nH]2)NC(=O)CCOCCC(=O)NCCNc2ncc(-c3cc(C)cc(F)c3)c(N3CCC(N)CC3)c2-c2nc3ccc(Cl)cc3[nH]2)C(C)C)cc1C(=O)NCCN)C(C)C [Compound 66],0.14,5.6,6.8
CC[C@H](C)[C@@H]([C@@H](CC(=O)N1CCC[C@H]1[C@H](OC)[C@@H](C)C(=O)N[C@H](C)[C@@H](O)c1ccccc1)OC)N(C)C(=O)[C@@H](NC(=O)[C@H](C(C)C)N(C)C(=O)OCc1ccc(NC(=O)[C@H](CCCNC(N)=O)NC(=O)[C@@H](NC(=O)CCOCCOCCOCCOCCC(=O)NCCNc2ncc(-c3cc(C)cc(F)c3)c(N3CCC(N)CC3)c2-c2nc3ccc(Cl)cc3[nH]2)C(C)C)cc1C(=O)N1CC(C(=O)O)C1)C(C)C [Compound 67],0.086,5.5,85
CC[C@H](C)[C@@H]([C@@H](CC(=O)N1CCC[C@H]1[C@H](OC)[C@@H](C)C(=O)N[C@H](C)[C@@H](O)c1ccccc1)OC)N(C)C(=O)[C@@H](NC(=O)[C@H](C(C)C)N(C)C(=O)OCc1ccc(NC(=O)[C@H](C)NC(=O)[C@@H](NC(=O)CCOCCOCCOCCOCCC(=O)NCCNc2ncc(-c3cc(C)cc(F)c3)c(N3CCC(N)CC3)c2-c2nc3ccc(Cl)cc3[nH]2)C(C)C)cc1C(=O)NCC(=O)O)C(C)C [Compound 69],0.16,5.6,36
CC[C@H](C)[C@@H]([C@@H](CC(=O)N1CCC[C@H]1[C@H](OC)[C@@H](C)C(=O)N[C@H](C)[C@@H](O)c1ccccc1)OC)N(C)C(=O)[C@@H](NC(=O)[C@H](C(C)C)N(C)C(=O)OCc1ccc(NC(=O)[C@H](CCCNC(N)=O)NC(=O)[C@@H](NC(=O)CN(C)C(=O)CCOCCC(=O)NCCNc2ncc(-c3cc(C)cc(F)c3)c(N3CCC(N)CC3)c2-c2nc3ccc(Cl)cc3[nH]2)C(C)C)cc1C(=O)NCC(=O)O)C(C)C [Compound 71],0.14,7.5,100
CC[C@H](C)[C@@H]([C@@H](CC(=O)N1CCC[C@H]1[C@H](OC)[C@@H](C)C(=O)N[C@H](C)[C@@H](O)c1ccccc1)OC)N(C)C(=O)[C@@H](NC(=O)[C@H](C(C)C)N(C)C(=O)OCc1ccc(NC(=O)[C@H](CCCNC(N)=O)NC(=O)[C@@H](NC(=O)CCCCC(=O)NCCNc2ncc(-c3cc(C)cc(F)c3)c(N3CCC(N)CC3)c2-c2nc3ccc(Cl)cc3[nH]2)C(C)C)cc1C(=O)NCC(=O)O)C(C)C [Compound 72],0.11,4.7,40
CC[C@H](C)[C@@H]([C@@H](CC(=O)N1CCC[C@H]1[C@H](OC)[C@@H](C)C(=O)N[C@H](C)[C@@H](O)c1ccccc1)OC)N(C)C(=O)[C@@H](NC(=O)[C@H](C(C)C)N(C)C(=O)OCc1ccc(NC(=O)[C@H](CCCNC(N)=O)NC(=O)[C@@H](NC(=O)C[C@@H](N)C(=O)NCCOCCC(=O)NCCNc2ncc(-c3cc(C)cc(F)c3)c(N3CCC(N)CC3)c2-c2nc3ccc(Cl)cc3[nH]2)C(C)C)cc1C(=O)N1CC(C(=O)O)C1)C(C)C [Compound 73],0.06,3.1,110
CC[C@H](C)[C@@H]([C@@H](CC(=O)N1CCC[C@H]1[C@H](OC)[C@@H](C)C(=O)N[C@H](C)[C@@H](O)c1ccccc1)OC)N(C)C(=O)[C@@H](NC(=O)[C@H](C(C)C)N(C)C(=O)OCc1ccc(NC(=O)[C@H](CCCNC(N)=O)NC(=O)[C@@H](NC(=O)CCOCCOCCC(=O)NCCNc2ncc(-c3cc(C)cc(F)c3)c(N3CCC(N)CC3)c2-c2nc3ccc(Cl)cc3[nH]2)C(C)C)cc1C(=O)NCCNC(=O)CCOCCOCCOCCOCCC(=O)O)C(C)C [Compound 74],0.19,4.3,17
CC[C@H](C)[C@@H]([C@@H](CC(=O)N1CCC[C@H]1[C@H](OC)[C@@H](C)C(=O)N[C@H](C)[C@@H](O)c1ccccc1)OC)N(C)C(=O)[C@@H](NC(=O)[C@H](C(C)C)N(C)C(=O)OCc1ccc(NC(=O)[C@H](CCCNC(N)=O)NC(=O)[C@@H](NC(=O)CCOCCOCCC(=O)NCCNc2ncc(-c3cc(C)cc(F)c3)c(N3CCC(N)CC3)c2-c2nc3ccc(Cl)cc3[nH]2)C(C)C)cc1C(=O)NCCCCCCCCCCC(=O)O)C(C)C [Compound 75],0.21,2.4,440
CC[C@H](C)[C@@H]([C@@H](CC(=O)N1CCC[C@H]1[C@H](OC)[C@@H](C)C(=O)N[C@H](C)[C@@H](O)c1ccccc1)OC)N(C)C(=O)[C@@H](NC(=O)[C@H](C(C)C)N(C)C(=O)OCc1ccc(NC(=O)[C@H](CCCNC(N)=O)NC(=O)[C@@H](NC(=O)[C@@H](CS(=O)(=O)O)NC(=O)CCOCCC(=O)NCCNc2ncc(-c3cc(C)cc(F)c3)c(N3CCC(N)CC3)c2-c2nc3ccc(Cl)cc3[nH]2)C(C)C)cc1C(=O)N1CC(N)C1)C(C)C [Compound 76],0.075,4.7,12
CC[C@H](C)[C@@H]([C@@H](CC(=O)N1CCC[C@H]1[C@H](OC)[C@@H](C)C(=O)N[C@H](C)[C@@H](O)c1ccccc1)OC)N(C)C(=O)[C@@H](NC(=O)[C@H](C(C)C)N(C)C(=O)OCc1ccc(NC(=O)[C@H](CCCNC(N)=O)NC(=O)[C@@H](NC(=O)[C@@H](CS(=O)(=O)O)NC(=O)CCOCCC(=O)NCCNc2ncc(-c3cc(C)cc(F)c3)c(N3CCC(N)CC3)c2-c2nc3ccc(Cl)cc3[nH]2)C(C)C)cc1C(=O)N1CC(C(=O)O)C1)C(C)C [Compound 77],0.092,4.2,130
